Tests used:
Panc-1 cells = experiment: Time lapse microscope images of pancreatic cancer cells after drug; type: cell-based, human; settings: 10 μM BCN057
Experimental: FIG. 2A is a group of images showing pancreatic cancer cell growth after treatment with 10 μM BCN057 at time 0, 15, 30, 60, 120 and 240 minutes.
Further, these doses span the concentrations found in plasma during efficacy studies in rodents. Subsequently, microscope images appeared to show cell blebbing and fragmentation shortly after application of BCN057 indicating possible apoptosis. […] Blebbing and cell fragmentation was noted within 20 min of incubation with drug (as shown with the arrows). Cell fragmentation was seen between 20-30 minutes after exposure to the drug.

[1] = tested on: Bax, BCl-2, Akt-1 and Caspase-3 in Panc-1 cells; experiment: qPCR of pro apoptosis and anti-apoptosis markers; type: cell-based, human; settings: 1-hour post treatment
Excerpt: FIG. 2C is a histogram of the results of qPCR analysis of pro apoptosis and anti-apoptosis markers in Panc-1 cells.

c-Jun = experiment: Western blot of Phospho-c-Jun (T-91/93) in Panc-1 cells; type: cell-based, human
Experimental: Western Blot: Cells were harvested and lysed in cell lysis buffer on ice for 15 minutes and the lysate was centrifuged at 13,000 rpm at 4° C. for 10 minutes. The supernatant was transferred into a new tube for BCA protein quantification assay (Thermo Fisher Scientific) and the samples were normalized. 3× loading buffer (Cell Signaling) was added the protein sample and boiled for 5 minutes. The samples were used for SDS-PAGE analysis and transferred to nitrocellulose membrane. The membrane was blocked with 5% BSA at room temperature for 1 hour and incubated with primary antibody at 4° C. overnight. The membrane was washed with 1×TBST 5 minutes for 3 times and incubated with horseradish peroxidase-conjugated secondary antibody for 1 hour at room temperature. The protein was visualized by SuperSignal West Pico Stable Peroxide Solution (Thermo Fisher Scientific). The blot was visualized by chemiluminescence using a BioRad Versadoc Imaging System. Phosphorylation at T 91/93 in c-Jun was measured as a function of total c-Jun. Significant phosphorylation at T 91/93 was observed which has been reported to be associated with the activation of c-Jun's pro-apoptotic activity. […] FIG. 4A is a western blot of Phospho-c-Jun (T-91/93). […] Phosphorylation of c-Jun at T-91/93 is known to induce apoptosis. Total c-Jun protein level was unchanged. […]

[2] = tested on: c-Jun in non-transformed HEK298 epithelial cells; experiment: c-Jun T 91/93 phosphorylation in non-transformed cells; type: cell-based; settings: data not shown
Experimental: Phosphorylation at T 91/93 in c-Jun was measured as a function of total c-Jun. Significant phosphorylation at T 91/93 was observed which has been reported to be associated with the activation of c-Jun's pro-apoptotic activity.

[3] = tested on: PDL-1 expression on Panc-1 cells; experiment: Western blot of PDL-1 on Panc-1 cells co-cultured with T-lymphocytes; type: cell-based, human; settings: co-culture, 2.5, 5, 7.5 and 10 hrs
Experimental: Cell lines and cell culture: Panc-1 cells were cultured in DMEM medium supplemented with 10% Fetal Bovine Serum and maintained at 37° C.5% CO2. Human Peripheral Blood Pan-T Cells were cultured in serum free T cells expansion media with 10 ng/ml of rhIL-2, T-cell activator and expanded as per the manufacturer instructions. Panc-1 cells and T-Cells were grown and expanded separately in T75 flasks. For co-culture experiments with Panc-1 cell, 2.5 million T-cells per well were plated in the well using a 6 well plate. 2.5 million Panc-1 Cells were plated in the thinsert which was placed into the well of the 6 well plate in order to have the cells physically separated but share media. The cells were incubated for 24 hours at 37° C., 5% CO2. At 24 hours the media was replaced with media containing vehicle, or 10 uM BCN057 and were incubated for the following timepoints: 1 hr, 6 hr, 12 hr, 24 hrs. The Panc-1 cells were removed by gently scraping the cells from the thinsert.
Western Blot: Cells were harvested and lysed in cell lysis buffer on ice for 15 minutes and the lysate was centrifuged at 13,000 rpm at 4° C. for 10 minutes. The supernatant was transferred into a new tube for BCA protein quantification assay (Thermo Fisher Scientific) and the samples were normalized. 3× loading buffer (Cell Signaling) was added the protein sample and boiled for 5 minutes. […]

[4] = tested on: irradiated mouse T-lymphocytes; experiment: In vitro viability assay on irradiated T-lymphocytes; type: cell-based; settings: T-lymphocyte
Experimental: FIG. 7A is a western blot showing PD-1 expression on human T-lymphocytes co-cultured with Panc-1 cells with no drug (vehicle) or 1, 6 and 12 hours with BCN057. FIG. 7B is a graph showing that the inhibition of GSK3b induces survival of Lymphocytes when exposed to radiation.
FIG. 8 is western blot showing PDL-1 expression (red arrow) on Panc-1 cells co cultured with human T-lymphocytes with no drug (vehicle) or 2.5, 5, 7.5 and 10 hrs. with BCN057. […] In a separate study using mouse T-lymphocytes, 2Gy radiation was used to induce apoptosis with increasing amounts of BCN057.

[5] = Solubility in aqueous formulations; type: physicochemical; settings: 30 wt % Captisol (SBE-beta-CD) and 100 mM MSA
[6] = tested on: KRASG13R mutant MC38 tumor cell line; settings: cited from earlier work

With `COc1ccc2cc(-c3nc4ccc(C)cn4c3NCc3ccco3)c(=O)[nH]c2c1` [BCN057, 3-[(Furan-2-ylmethyl)-amino]-2-(7-methoxy-2-oxo-1,2-dihydro-quinolin-3-yl)-6-methyl-imidazo[1,2-a]pyridin-1-ium] the “Time at which cell fragmentation was seen after exposure” value (Panc-1 cells) was 20 to 30 min, the “Time to blebbing and cell fragmentation” value (Panc-1 cells) was no more than 20 min and the Akt-1 expression [1] was “did not affect”. For the same compound, the Bax gene expression [1] was “induces expression”, the Bcl2 gene expression [1] was “inhibited” and the Caspase-3 expression [1] was “did not affect”. For the same compound, the “c-Jun phosphorylation at T-91/93” value (c-Jun; KRAS mutant Panc-1 cells, within 20 minutes after drug treatment) was “significantly increases JNK dependent phosphorylation”, the “Total c-Jun protein level” value (c-Jun; Panc-1 cells) was “unchanged” and the “c-Jun pro-apoptotic activity (T 91/93 phosphorylation)” value [2] was “not found to be induced”. For the same compound, the “PDL-1 expression on Panc-1 cells” value [3] was “not appreciably changed”, the EC50 ([4]; light or radiation study, viability of irradiated mouse T-lymphocytes) was 5.34 µM and the EC50 ([4]; preservation of mouse T-lymphocytes, 2Gy radiation) was 5.34 µM. For the same compound, the Solubility [5] was “excellent solubility at up to pH 4.1 or higher”, the Tolerated radiation dose ([6]; BCN057 with radiation treatment versus radiation alone) was “able to tolerate much higher radiation doses” and the Tumor burden ([6]; mice receiving BCN057 versus control) was “significantly lower tumor burden than control”.
